Test [1] concerns the target T1, human SGLT2 (Homo sapiens, UniProt P31639).
T1 construct: expressed in transfected cells; host or cells: CHO-K1
T1 sequence (P31639 1-672): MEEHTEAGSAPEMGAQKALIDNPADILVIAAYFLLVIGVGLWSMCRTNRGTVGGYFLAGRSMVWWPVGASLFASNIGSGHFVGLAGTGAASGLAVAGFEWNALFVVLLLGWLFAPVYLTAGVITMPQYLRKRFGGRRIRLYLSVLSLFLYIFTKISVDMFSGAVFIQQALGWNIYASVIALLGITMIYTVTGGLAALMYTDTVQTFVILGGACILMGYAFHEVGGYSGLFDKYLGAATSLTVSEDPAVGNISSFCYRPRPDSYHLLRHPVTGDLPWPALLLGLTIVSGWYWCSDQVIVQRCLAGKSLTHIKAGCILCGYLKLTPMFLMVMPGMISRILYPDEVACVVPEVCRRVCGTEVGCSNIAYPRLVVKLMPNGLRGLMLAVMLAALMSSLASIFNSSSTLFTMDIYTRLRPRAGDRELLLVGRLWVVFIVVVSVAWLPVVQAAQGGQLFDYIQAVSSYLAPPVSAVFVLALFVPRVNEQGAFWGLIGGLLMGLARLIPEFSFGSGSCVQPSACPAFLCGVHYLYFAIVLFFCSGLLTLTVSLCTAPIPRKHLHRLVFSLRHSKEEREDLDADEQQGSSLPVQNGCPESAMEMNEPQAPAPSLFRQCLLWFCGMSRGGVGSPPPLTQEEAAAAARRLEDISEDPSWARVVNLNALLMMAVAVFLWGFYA
Description: Inhibition test for sodium-dependent sugar uptake in CHO-K1 cells stably expressing human SGLT2. In kind it is cell-based. The following applies: [14C]methyl α-D-glucopyranoside uptake, 37° C., 1 hour, read-out: human SGLT2 IC50 (50% inhibition of sugar uptake). The protocol: (§1) A human SGLT1 sequence (NM_000343) was reverse-transcribed and amplified from human small intestine mRNA, and then introduced into pCMV-tag5A (Stratagene). Likewise, a human SGLT2 sequence (NM_003041) was prepared from human kidney mRNA in the same manner and introduced into pcDNA3.1+hygro (Invitrogen). The individual cloned sequences were confirmed to be identical with the sequences reported.
(§2) The human SGLT1 and human SGLT2 expression vectors were each transfected into CHO-K1 cells using lipofectamine 2000 (Invitrogen). The cells were cultured in the presence of 500 μg/mL geneticin (SGLT1) or hygromycin B (SGLT2) to select resistant strains and specific activity of sugar uptake in the system shown below was used as an indicator to obtain SGLT-expressing cells.
(§3) The cells stably expressing human SGLT1 or human SGLT2 were used for an inhibition test of sodium-dependent glucose uptake activity.
(§4) Pretreatment buffer (140 mM choline chloride, 2 mM KCl, 1 mM CaCl2, 1 mM MgCl2, 10 mM HEPES/5 mM Tris, pH 7.4) was added in a volume of 200 μL to human SGLT1-expressing cells and 2 mL to human SGLT2-expressing cells, followed by incubation for 20 minutes. The pretreatment buffer was removed and replaced with uptake buffer containing a test compound (1 mM methyl α-D-glucopyranoside (containing [^14C]methyl α-D-glucopyranoside), 145 mM NaCl, 2 mM KCl, 1 mM CaCl2, 1 mM MgCl2, 10 mM HEPES/5 mM Tris, pH 7.4) in a volume of 75 μL for SGLT1 and 200 μL for SGLT2. Uptake reaction was performed at 37° C. for 30 minutes (SGLT1) or 1 hour (SGLT2). After the reaction, the cells were washed twice with washing buffer (10 mM methyl α-D-glucopyranoside, 140 mM choline chloride, 2 mM KCl, 1 mM CaCl2, 1 mM MgCl2, 10 mM HEPES/5 mM Tris, pH 7.4) in a volume of 200 μL for SGLT1 and 2 mL for SGLT2, and then dissolved in a 0.2 M NaOH solution (75 μL for SGLT1 and 400 μL for SGLT2). A liquid scintillator (Perkin Elmer) was added and mixed well with each sample, followed by measurement of radioactivity using a microBETA for SGLT1 or a liquid scintillation counter for SGLT2 (Beckman Coulter). For the control group, uptake buffer containing no test compound was prepared. Moreover, another uptake buffer containing choline chloride instead of NaCl was also prepared for basal uptake.
(§5) For determination of IC50 values, test compounds prepared at 6 appropriate concentrations were used and their concentrations required for 50% inhibition of the amount of sugar uptake (IC50 values) were calculated relative to the amount of sugar uptake in the control group (100%).

Test [2] has as its target T2, human SGLT1 (Homo sapiens, UniProt P13866).
T2 construct: expressed in transfected cells; host or cells: CHO-K1
T2 sequence (P13866 1-664): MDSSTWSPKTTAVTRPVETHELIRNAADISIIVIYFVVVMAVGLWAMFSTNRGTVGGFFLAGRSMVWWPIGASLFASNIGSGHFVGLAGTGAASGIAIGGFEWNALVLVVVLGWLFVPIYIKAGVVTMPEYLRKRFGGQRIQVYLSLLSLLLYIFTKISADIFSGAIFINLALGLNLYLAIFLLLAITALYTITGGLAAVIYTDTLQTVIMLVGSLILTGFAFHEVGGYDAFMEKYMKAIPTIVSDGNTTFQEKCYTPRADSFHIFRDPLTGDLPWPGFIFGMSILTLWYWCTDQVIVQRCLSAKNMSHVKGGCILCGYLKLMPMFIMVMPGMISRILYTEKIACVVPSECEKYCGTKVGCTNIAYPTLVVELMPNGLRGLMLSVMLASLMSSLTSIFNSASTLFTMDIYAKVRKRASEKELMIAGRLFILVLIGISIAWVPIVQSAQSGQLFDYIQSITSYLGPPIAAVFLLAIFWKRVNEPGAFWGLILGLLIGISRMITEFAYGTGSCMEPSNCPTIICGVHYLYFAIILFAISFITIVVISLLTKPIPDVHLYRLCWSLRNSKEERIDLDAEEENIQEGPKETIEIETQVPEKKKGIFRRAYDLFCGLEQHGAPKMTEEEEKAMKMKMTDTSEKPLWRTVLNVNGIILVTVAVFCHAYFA
Description: Inhibition test for sodium-dependent sugar uptake in CHO-K1 cells stably expressing human SGLT1. In kind it is cell-based. The conditions noted are these: [14C]methyl α-D-glucopyranoside uptake, 37° C., 30 minutes, read-out: human SGLT1 IC50 (50% inhibition of sugar uptake). The protocol:
as §1, §2, §3, §4, §5

The subject of test [3] is Streptozotocin-induced diabetic model rats. Put plainly: Oral glucose tolerance test in streptozotocin-induced diabetic model rats (hypoglycemic effect). In kind it is in vivo, rat. The conditions noted are these: STZ diabetic SD/IGS rats; 1 mg/kg oral; glucose 2 g/kg oral; decrease in blood glucose ΔAUC 0-1 h relative to control group. The protocol: SD/IGS rats at 7 weeks of age (male, Charles River Laboratories Japan Inc.) were fasted for about 16 hours and then injected with 50 mg/kg streptozotocin (STZ) via the tail vein under ether anesthesia to prepare diabetic model rats. Similarly, another group of SD/IGS rats was injected with 1.25 mmol/L citric acid in physiological saline (1 mL/kg) via the tail vein under ether anesthesia to prepare normal control rats. At one week (8 weeks of age) after injection of STZ or 1.25 mmol/L citric acid in physiological saline, the rats were provided for an oral glucose tolerance test.
After the rats were fasted for about 16 hours, drug groups were each orally administered with a drug (1 mg/kg) suspended in a 0.5% aqueous carboxymethylcellulose (CMC) solution, while the control group was orally administered with a 0.5% aqueous CMC solution alone. At 5 minutes after drug administration, a glucose solution (2 g/kg) was orally administered and blood was collected at 5 points in total: before drug administration (0 hour) and 0.25, 0.5, 1 and 2 hours after oral administration.
Blood was collected from the orbital venous sinus of each rat under ether anesthesia using a heparin-coated blood collection tube, and centrifuged to separate plasma. Plasma glucose concentrations were quantified by measurement with a Glucose CII-Test Wako (Wako Pure Chemical Industries, Ltd., Japan). To determine the intensity of hypoglycemic effect, blood glucose levels measured between 0 and 1 hour in each drug group were analyzed by the trapezoidal method to calculate the area under the blood glucose-time curve (AUC), followed by basal subtraction to obtain a blood glucose increment (ΔAUC).

Turning to `Cc1cc(O)c([C@@H]2S[C@H](CO)[C@@H](O)[C@H](O)[C@H]2O)cc1Cc1ccc(CCCNC(=O)NC(C)(C)CO)cc1` [Example 6, (1S)-1-{5-[4-(3-{[(2-hydroxy-1,1-dimethylethyl)aminocarbonyl]amino}propyl)benzyl]-2-hydroxy-4-methylphenyl}-1,5-anhydro-1-thio-D-glucitol], the IC50 in test [1] came out at 32 nM; in test [2] it was 22 nM. Moreover, the “STZ rat-OGTT (2 g/Kg) % inhibition ΔAUC0-1 h (mgh/dL) @1 mg/Kg” value in test [3] turned out to be 69.2 % inhibition.

Turning to `Cc1cc(CCCC(=O)NC(C)(C)CO)ccc1Cc1cc([C@@H]2S[C@H](CO)[C@@H](O)[C@H](O)[C@H]2O)c(O)cc1C` [Example 5, (1S)-1,5-anhydro-1-[2-hydroxy-5-(4-{4-[(2-hydroxy-1,1-dimethylethyl)amino]-4-oxobutyl}-2-methylbenzyl)-4-methylphenyl]-1-thio-D-glucitol], the IC50 in test [1] came to 99 nM; in test [2], 20 nM.

For `Cc1cc(O)c([C@@H]2S[C@H](CO)[C@@H](O)[C@H](O)[C@H]2O)cc1Cc1ccc(CCCC(=O)NC(C)(CO)CO)cc1` [Example 2, (1S)-1,5-anhydro-1-{2-hydroxy-5-[4-(4-{[2-hydroxy-1-(hydroxymethyl)-1-methylethyl]amino}-4-oxobutyl)benzyl]-4-methylphenyl}-1-thio-D-glucitol], the IC50 in test [1] came to 21 nM; in test [2], 22 nM. The “STZ rat-OGTT (2 g/Kg) % inhibition ΔAUC0-1 h (mgh/dL) @1 mg/Kg” value in test [3] worked out at 65.4 % inhibition.

Turning to `Cc1cc(O)c([C@@H]2S[C@H](CO)[C@@H](O)[C@H](O)[C@H]2O)cc1Cc1ccc(CCCCC(=O)NC(C)(C)CO)cc1` [Example 8, (1S)-1,5-anhydro-1-[2-hydroxy-5-(4-{5-[(2-hydroxy-1,1-dimethylethyl)amino]-5-oxopentyl}benzyl)-4-methylphenyl]-1-thio-D-glucitol], the IC50 in test [1] was 38 nM; in test [2], 79 nM.

In the case of `Cc1cc(O)c([C@@H]2S[C@H](CO)[C@@H](O)[C@H](O)[C@H]2O)cc1Cc1ccc(CCCC(=O)NC(C)(C)CO)cc1` [Example 1, (1S)-1,5-anhydro-1-[2-hydroxy-5-(4-{4-[(2-hydroxy-1,1-dimethylethyl)amino]-4-oxobutyl}benzyl)-4-methylphenyl]-1-thio-D-glucitol], the IC50 was determined as 17 nM in test [1] and 11 nM in test [2]. Moreover, the “STZ rat-OGTT (2 g/Kg) % inhibition ΔAUC0-1 h (mgh/dL) @1 mg/Kg” value in test [3] was 70.4 % inhibition.

For the compound `Cc1cc(O)c([C@@H]2S[C@H](CO)[C@@H](O)[C@H](O)[C@H]2O)cc1Cc1ccc(CCCC(=O)NC(CO)(CO)CO)cc1` [Example 3, (1S)-1,5-anhydro-1-{2-hydroxy-5-[4-(4-{[2-hydroxy-1,1-bis(hydroxymethyl)ethyl]amino}-4-oxobutyl)benzyl]-4-methylphenyl}-1-thio-D-glucitol], the IC50 in test [1] is 31 nM; in test [2] it was 35 nM. Also, the “STZ rat-OGTT (2 g/Kg) % inhibition ΔAUC0-1 h (mgh/dL) @1 mg/Kg” value in test [3] came to 60.8 % inhibition.

On to `Cc1cc(O)c([C@@H]2S[C@H](CO)[C@@H](O)[C@H](O)[C@H]2O)cc1Cc1ccc(CCCC(=O)NC(C)(C)C(N)=O)cc1` [Example 4, (1S)-1-[5-(4-{4-[(2-amino-1,1-dimethyl-2-oxoethyl)amino]-4-oxobutyl}benzyl)-2-hydroxy-4-methylphenyl]-1,5-anhydro-1-thio-D-glucitol], for which the IC50 came out at 49 nM in test [1] and 47 nM in test [2]. Moreover, the “STZ rat-OGTT (2 g/Kg) % inhibition ΔAUC0-1 h (mgh/dL) @1 mg/Kg” value in test [3] was found to be 66.5 % inhibition.

The record behind these values is patent US8115017B2, “C-phenyl 1-thioglucitol compound” (Taisho Pharmaceutical Co., Ltd, priority 2006, dated 2012).
